Results reported in patent publication US20240417405A1, “Substituted Spiro Derivatives” (Janssen Pharmaceutica NV, priority 2021, published 2024).
Like-named read-outs stand apart in the source and are kept apart here.

Experiments:
[1] = biological target: T1, menin/MLL (terbium chelate-labeled menin, FITC-MBM1 peptide) (Homo sapiens, UniProt O00255, T541A); test: Menin/MLL homogenous time-resolved fluorescence (HTRF) assay; assay type: binding; settings: 30 min incubation
T1 construct: Menin (a.a 1-610-6xhis tag)
T1 sequence (O00255 with tags, fused parts or gaps T541A): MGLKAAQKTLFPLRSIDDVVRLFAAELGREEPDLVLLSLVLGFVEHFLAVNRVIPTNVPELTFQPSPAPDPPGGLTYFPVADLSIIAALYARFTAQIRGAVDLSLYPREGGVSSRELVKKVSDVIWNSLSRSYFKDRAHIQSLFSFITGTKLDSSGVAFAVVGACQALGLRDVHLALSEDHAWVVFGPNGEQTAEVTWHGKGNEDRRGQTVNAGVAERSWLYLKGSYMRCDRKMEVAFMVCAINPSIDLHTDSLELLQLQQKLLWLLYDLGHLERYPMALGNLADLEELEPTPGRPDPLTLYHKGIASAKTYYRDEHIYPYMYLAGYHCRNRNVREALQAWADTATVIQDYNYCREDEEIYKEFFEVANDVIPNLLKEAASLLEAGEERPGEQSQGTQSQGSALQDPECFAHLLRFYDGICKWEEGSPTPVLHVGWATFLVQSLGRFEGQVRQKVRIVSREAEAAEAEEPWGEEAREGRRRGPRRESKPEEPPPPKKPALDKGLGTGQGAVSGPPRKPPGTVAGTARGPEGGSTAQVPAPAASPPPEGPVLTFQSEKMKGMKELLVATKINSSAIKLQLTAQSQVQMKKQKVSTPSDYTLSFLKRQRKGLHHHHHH
How it was run: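 Percent inhibition, calculated from the 520/490 nm HTRF ratio against high and low controls, was fitted for IC50 with a 0.1 nM detection limit. Reactions held 200 pM Tb-menin and 75 nM FITC-MBM1 in pH 7.5 Tris buffer with 0.5% DMSO.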

MOLM14 cells = test: Proliferation assay, spheroid-like growth, MOLM14 (MLL-AF9 rearranged); assay type: cell-based, human; settings: 8 days, confluence as measure of spheroid size, read-out: spheroid assay_OneTime MOLM14 IC50
How it was run: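 Seed cells at linear-growth densities in low-attachment wells; add test compound at several concentrations, normalized to 0.3% DMSO; incubate 8 days at 37 °C; image spheroids and measure confluence; calculate absolute IC50 against DMSO and reference-compound controls.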

| Compound | IC50 [1] [nM] | IC50 (MOLM14 cells; Homo sapiens, MOLM-14, 192 h) [nM] | IC50 (MOLM14 cells) [nM] |
| --- | --- | --- | --- |
| CNC(=O)c1cnc(N[C@H]2C[C@@H]([C@H](C)N3CC4(CCN(c5ncnnc5Oc5ccc(F)cc5-c5cncnc5C5CC5)C4)C3)C2)s1 (single isomer, unassigned) [Compound 455] | 0.14 | 24 | – |
| CNC(=O)c1coc(N[C@H]2C[C@@H](C(C)N3CC4(CCN(c5ncnnc5Oc5ccc(F)cc5-c5cncnc5C5CC5)C4)C3)C2)n1 (single isomer, unassigned) [Compound 461] | 0.2 | 63 | – |
| CC(C)[C@H]([C@H]1C[C@@H](Nc2ccc3[nH]c(=O)[nH]c3c2)C1)N1CC2(CCN(c3ncnnc3Oc3ccc(F)cc3-c3cncnc3C3CC3)C2)C1 (single isomer, unassigned) [Compound 462] | 0.27 | 89 | – |
| CC(C)[C@H]([C@H]1C[C@@H](Nc2ccnc(N)n2)C1)N1CC2(CCN(c3ncnnc3Oc3ccc(F)cc3-c3cncnc3C3CC3)C2)C1 (single isomer, unassigned) [Compound 463] | 0.082 | 29 | – |
| CCOC(=O)c1coc(N[C@H]2C[C@@H]([C@@H](C(C)C)N3CC4(CCN(c5ncnnc5Oc5ccc(F)cc5-c5cncnc5C5CC5)C4)C3)C2)n1 (single isomer, unassigned) [Compound 480] | 0.15 | 6 | – |
| CCOC(=O)c1nnc(N[C@H]2C[C@@H](C(C(C)C)N3CC4(CCN(c5ncnnc5Oc5ccc(F)cc5-c5cncnc5C5CC5)C4)C3)C2)o1 (single isomer, unassigned) [Compound 481] | 0.14 | > 940 | – |
| CCOC(=O)c1nnc(N[C@H]2C[C@@H](C(C(C)C)N3CC4(CCN(c5ncnnc5Oc5ccc(F)cc5-c5cncnc5C5CC5)C4)C3)C2)s1 (single isomer, unassigned) [Compound 482] | 0.18 | 15 | – |
| CCOC(=O)c1sc(N[C@H]2C[C@@H](C(C(C)C)N3CC4(CCN(c5ncnnc5Oc5ccc(F)cc5-c5cncnc5C5CC5)C4)C3)C2)nc1C (single isomer, unassigned) [Compound 483] | 0.07 | 17 | – |
| CC(C)C([C@H]1C[C@@H](NC(=O)OC(C)(C)C)C1)N1CC2(CCN(c3ncnnc3Oc3ccc(F)cc3-c3cncnc3C3CC3)C2)C1 (single isomer, unassigned) [Compound 491a] | 0.13 | 4.9 | – |
| CC(C)C([C@H]1C[C@@H](N2CC3(COC3)C2)C1)N1CC2(CCN(c3ncnnc3Oc3ccc(F)cc3-c3ncc(C#N)cc3C3CC3)C2)C1 (some centres unmarked) [Compound 140] | 0.5 | 42 | – |
| CC(=O)N1CCN([C@H]2C[C@@H](C(C(C)C)N3CC4(CCN(c5ncnnc5Oc5ccc(F)cc5-c5cnc(C#N)nc5C5CC5)C4)C3)C2)CC1 (some centres unmarked) [Compound 169] | 0.5 | 51 | – |
| CC(C)C([C@H]1C[C@@H](Nc2ncccn2)C1)N1CC2(CCN(c3ncnnc3Oc3ccc(F)cc3-c3cncnc3C3CC3)C2)C1 (some centres unmarked) [Compound 192] | 4.8 | 1040 | – |
| Cc1ncc(-c2cc(F)ccc2Oc2nncnc2N2CCC3(C2)CN([C@@H](C(C)C)[C@H]2C[C@@H](N4CCC5(CN(C(=O)C6CC6)C5)C4)C2)C3)c(C2CC2)n1 [Compound 380] | 0.16 | 3.7 | – |
| CC(=O)N1CC2(CCN([C@H]3C[C@@H]([C@H](C(C)C)N4CC5(CCN(c6ncnnc6Oc6ccc(F)cc6-c6cnc(C)nc6C6CC6)C5)C4)C3)C2)C1 [Compound 381] | 0.14 | 8.1 | – |
| Cc1ncc(-c2cc(F)ccc2Oc2nncnc2N2CCC3(C2)CN([C@@H](C(C)C)[C@H]2C[C@@H](N4CC[C@H](C(=O)NC5CC5)C4)C2)C3)c(C2CC2)n1 [Compound 384] | 0.085 | 0.7 | – |
| Cc1ncc(-c2cc(F)ccc2Oc2nncnc2N2CCC3(C2)CN([C@@H](C(C)C)[C@H]2C[C@@H](N4CC[C@@H](NC(=O)C5CC5)C4)C2)C3)c(C2CC2)n1 [Compound 386] | 0.059 | < 1.8 | – |
| Cc1ncc(-c2cc(F)ccc2Oc2nncnc2N2CCC3(C2)CN([C@@H](C(C)C)[C@H]2C[C@@H](N4CC[C@H](NC(=O)C5CC5)C4)C2)C3)c(C2CC2)n1 [Compound 387] | 0.026 | < 1.8 | – |
| CC(=O)N[C@H]1[C@@H]2CN([C@H]3C[C@@H]([C@H](C(C)C)N4CC5(CCN(c6ncnnc6Oc6ccc(F)cc6-c6cnc(C)nc6C6CC6)C5)C4)C3)C[C@@H]21 [Compound 390] | 0.18 | 4 | – |
| Cc1ncc(-c2cc(F)ccc2Oc2nncnc2N2CCC3(C2)CN([C@@H](C(C)C)[C@H]2C[C@@H](N4CC5(CN(C(=O)C6(F)CC6)C5)C4)C2)C3)c(C2CC2)n1 [Compound 391] | 0.057 | < 1.8 | – |

The remaining molecules from weak to strong by IC50 [1], led by results:

| IC50 [1] [nM] | IC50 (MOLM14 cells; Homo sapiens, MOLM-14, 192 h) [nM] | IC50 (MOLM14 cells) [nM] | Compound |
| --- | --- | --- | --- |
| 0.62 | 100 | – | CC(=O)N1CC2CN([C@H]3C[C@H]([C@H](C(C)C)N4CC5(CCN(c6ncnnc6Oc6ccc(F)cc6-c6cnc(C)nc6C6CC6)C5)C4)C3)CC2C1 (some centres unmarked) [Compound 376] |
| 0.4 | 160 | – | CC(=O)N[C@H]1C[C@@H](C(C(C)C)N2CC3(CCN(c4ncnnc4Oc4ccc(F)cc4-c4nnccc4C4CC4)C3)C2)C1 (some centres unmarked) [Compound 183] |
| 0.17 | 13 | – | CC(=O)Nc1nnc(N[C@H]2C[C@@H]([C@@H](C(C)C)N3CC4(CCN(c5ncnnc5Oc5ccc(F)cc5-c5cncnc5C5CC5)C4)C3)C2)s1 (single isomer, unassigned) [Compound 454] |
| 0.16 | 27 | – | CC(C)C([C@H]1C[C@@H](Nc2n[nH]c3ncncc23)C1)N1CC2(CCN(c3ncnnc3Oc3ccc(F)cc3-c3cncnc3C3CC3)C2)C1 (single isomer, unassigned) [Compound 458] |
| 0.15 | 4 | – | CC(C)C([C@H]1C[C@@H](Nc2nnc(N)s2)C1)N1CC2(CCN(c3ncnnc3Oc3ccc(F)cc3-c3cncnc3C3CC3)C2)C1 (single isomer, unassigned) [Compound 488] |
| 0.11 | 20 | – | CNC(=O)c1ccnc(N[C@H]2C[C@@H]([C@@H](C(C)C)N3CC4(CCN(c5ncnnc5Oc5ccc(F)cc5-c5cncnc5C5CC5)C4)C3)C2)n1 (single isomer, unassigned) [Compound 452] |
| 0.106 | – | 1.6 | CC(=O)N1CC2CN([C@H]3C[C@@H]([C@H](C(C)C)N4CC5(CCN(c6ncnnc6Oc6ccc(F)cc6-c6cnc(C)nc6C6CC6)C5)C4)C3)CC2C1 (some centres unmarked) [Compound 378] |
| 0.08 | 7 | – | Cc1ncc(-c2cc(F)ccc2Oc2nncnc2N2CCC3(C2)CN([C@@H](C(C)C)[C@H]2C[C@@H](N4CCC5(COC5)C4)C2)C3)c(C2CC2)n1 [Compound 382] |
| 0.07 | 11 | – | CNC(=O)c1oc(N[C@H]2C[C@@H](C(C(C)C)N3CC4(CCN(c5ncnnc5Oc5ccc(F)cc5-c5cncnc5C5CC5)C4)C3)C2)nc1C (single isomer, unassigned) [Compound 460] |
| 0.055 | – | 4 | CC(=O)N1CC2CN([C@H]3C[C@@H]([C@H](C(C)C)N4CC5(CCN(c6ncnnc6Oc6ccc(F)cc6-c6cnc(C)nc6C6CC6)C5)C4)C3)CC2C1 (some centres unmarked) [Compound 375] |
| 0.05 | 6 | – | CNC(=O)c1csc(N[C@H]2C[C@@H]([C@@H](C(C)C)N3CC4(CCN(c5ncnnc5Oc5ccc(F)cc5-c5cncnc5C5CC5)C4)C3)C2)n1 (single isomer, unassigned) [Compound 453] |
| 0.046 | 2 | – | CC(=O)N[C@@H]1CCN([C@H]2C[C@@H]([C@H](C(C)C)N3CC4(CCN(c5ncnnc5Oc5ccc(F)cc5-c5cnc(C)nc5C5CC5)C4)C3)C2)C1 [Compound 389] |
| 0.04 | 2.3 | – | Cc1ncc(-c2cc(F)ccc2Oc2nncnc2N2CCC3(C2)CN([C@@H](C(C)C)[C@H]2C[C@@H](N4CC[C@H](C(=O)N(C)C)C4)C2)C3)c(C2CC2)n1 [Compound 383] |
| 0.027 | < 1.8 | – | CC(=O)N[C@H]1CCN([C@H]2C[C@@H]([C@H](C(C)C)N3CC4(CCN(c5ncnnc5Oc5ccc(F)cc5-c5cnc(C)nc5C5CC5)C4)C3)C2)C1 [Compound 388] |
| 0.026 | < 1.8 | – | Cc1ncc(-c2cc(F)ccc2Oc2nncnc2N2CCC3(C2)CN([C@@H](C(C)C)[C@H]2C[C@@H](N4C[C@@H]5[C@H](C4)[C@H]5NC(=O)C4CC4)C2)C3)c(C2CC2)n1 [Compound 385] |
